Among the data in ChEMBL document CHEMBL1139393 (Bioorg Med Chem Lett, 2008) are Ki, Papp A→B and AUC values, retold here.

The target of series [1] is Matrix metalloproteinase-14 (Homo sapiens, UniProt P50281).
The target in series [2] is T1, Disintegrin and metalloproteinase domain-containing protein 10 (Homo sapiens, UniProt O14672).
T1 sequence (O14672 whole entry): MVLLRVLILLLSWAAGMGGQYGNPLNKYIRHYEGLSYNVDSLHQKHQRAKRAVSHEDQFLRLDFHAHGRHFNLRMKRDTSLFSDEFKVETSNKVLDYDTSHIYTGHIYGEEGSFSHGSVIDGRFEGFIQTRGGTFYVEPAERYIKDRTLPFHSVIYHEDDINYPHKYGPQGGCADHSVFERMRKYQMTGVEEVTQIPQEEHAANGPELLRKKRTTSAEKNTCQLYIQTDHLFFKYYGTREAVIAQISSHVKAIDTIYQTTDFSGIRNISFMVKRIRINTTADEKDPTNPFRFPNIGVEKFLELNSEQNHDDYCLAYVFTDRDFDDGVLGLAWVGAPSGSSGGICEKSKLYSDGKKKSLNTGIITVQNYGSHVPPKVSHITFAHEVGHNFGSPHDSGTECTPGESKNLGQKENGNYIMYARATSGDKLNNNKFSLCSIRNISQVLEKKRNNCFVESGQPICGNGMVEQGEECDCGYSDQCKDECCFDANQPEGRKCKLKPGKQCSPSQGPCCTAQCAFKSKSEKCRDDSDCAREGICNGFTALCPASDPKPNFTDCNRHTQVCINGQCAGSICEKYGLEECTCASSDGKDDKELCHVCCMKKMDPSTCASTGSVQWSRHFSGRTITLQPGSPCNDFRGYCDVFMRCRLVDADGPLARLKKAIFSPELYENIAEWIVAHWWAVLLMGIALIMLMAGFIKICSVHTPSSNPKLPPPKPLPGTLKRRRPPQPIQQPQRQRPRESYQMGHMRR

Another series concerns the target Stromelysin-1 (Homo sapiens, UniProt P08254).
Series [3] has as its target 72 kDa type IV collagenase (Homo sapiens, UniProt P08253).
The target of a further series is T2, Interstitial collagenase (Homo sapiens, UniProt P03956).
T2 sequence (P03956 whole entry): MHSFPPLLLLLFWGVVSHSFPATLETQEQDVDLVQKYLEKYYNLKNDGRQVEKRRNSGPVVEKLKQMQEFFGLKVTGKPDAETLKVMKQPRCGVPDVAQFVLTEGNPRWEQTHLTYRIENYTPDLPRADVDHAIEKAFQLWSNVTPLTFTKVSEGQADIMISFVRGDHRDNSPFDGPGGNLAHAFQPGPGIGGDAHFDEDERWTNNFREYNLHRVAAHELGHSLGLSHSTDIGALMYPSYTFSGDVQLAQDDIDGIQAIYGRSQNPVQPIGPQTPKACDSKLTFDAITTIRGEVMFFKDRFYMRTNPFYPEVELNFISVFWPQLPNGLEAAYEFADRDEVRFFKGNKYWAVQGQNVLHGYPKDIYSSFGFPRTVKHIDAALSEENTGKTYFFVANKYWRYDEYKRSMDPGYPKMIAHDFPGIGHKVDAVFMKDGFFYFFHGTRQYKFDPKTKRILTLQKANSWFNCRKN

In the next series the target is T3, Matrilysin (Homo sapiens, UniProt P09237).
T3 sequence (P09237 whole entry): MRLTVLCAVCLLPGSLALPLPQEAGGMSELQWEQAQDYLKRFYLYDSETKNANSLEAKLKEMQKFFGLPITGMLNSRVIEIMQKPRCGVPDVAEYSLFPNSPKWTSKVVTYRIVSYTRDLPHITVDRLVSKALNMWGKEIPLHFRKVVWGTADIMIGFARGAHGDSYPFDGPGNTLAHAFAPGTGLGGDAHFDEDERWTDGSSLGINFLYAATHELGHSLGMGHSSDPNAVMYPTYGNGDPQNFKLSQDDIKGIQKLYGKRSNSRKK

The nature of series [4]: Permeability from apical to basolateral side of human Caco-2 cells. The format is ADME, cell-based. To be noted: read-out: permeability. A general note: Caco-2 monolayers are a common model of the intestinal barrier.
Series [5] can be described thus: AUC in Sprague-Dawley rat at 10 mg/kg, po. The class given is ADME, organism-based. Also on record: dose 10 mg/kg, route oral. Conditions: plasma.

As usually defined, the Ki is a measure of affinity in units of concentration, obtained from inhibition or displacement. High values mean weaker binding, low ones tighter binding. As usually defined, the AUC is the area under the concentration-time curve, a measure of exposure. High values mean high exposure, low ones low exposure.

Sequence of 72 kDa type IV collagenase (P08253 whole entry): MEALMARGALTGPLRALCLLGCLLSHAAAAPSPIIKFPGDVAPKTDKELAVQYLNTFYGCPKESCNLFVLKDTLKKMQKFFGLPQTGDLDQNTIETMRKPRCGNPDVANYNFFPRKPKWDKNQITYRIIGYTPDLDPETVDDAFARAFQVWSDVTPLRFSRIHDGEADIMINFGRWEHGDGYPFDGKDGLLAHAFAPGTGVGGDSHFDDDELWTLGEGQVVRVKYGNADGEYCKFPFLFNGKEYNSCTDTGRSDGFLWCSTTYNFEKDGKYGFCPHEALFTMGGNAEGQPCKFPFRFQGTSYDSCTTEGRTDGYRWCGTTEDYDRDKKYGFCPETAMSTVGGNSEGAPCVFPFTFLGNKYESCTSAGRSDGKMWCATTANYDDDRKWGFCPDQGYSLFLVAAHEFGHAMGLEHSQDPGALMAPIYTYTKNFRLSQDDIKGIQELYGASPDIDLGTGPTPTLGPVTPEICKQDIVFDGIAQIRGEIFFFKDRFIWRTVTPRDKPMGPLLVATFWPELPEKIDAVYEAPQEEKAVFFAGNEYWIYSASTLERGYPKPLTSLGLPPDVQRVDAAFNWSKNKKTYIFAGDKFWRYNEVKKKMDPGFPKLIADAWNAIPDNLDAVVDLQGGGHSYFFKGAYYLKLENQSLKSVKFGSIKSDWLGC
Sequence of Stromelysin-1 (P08254 whole entry): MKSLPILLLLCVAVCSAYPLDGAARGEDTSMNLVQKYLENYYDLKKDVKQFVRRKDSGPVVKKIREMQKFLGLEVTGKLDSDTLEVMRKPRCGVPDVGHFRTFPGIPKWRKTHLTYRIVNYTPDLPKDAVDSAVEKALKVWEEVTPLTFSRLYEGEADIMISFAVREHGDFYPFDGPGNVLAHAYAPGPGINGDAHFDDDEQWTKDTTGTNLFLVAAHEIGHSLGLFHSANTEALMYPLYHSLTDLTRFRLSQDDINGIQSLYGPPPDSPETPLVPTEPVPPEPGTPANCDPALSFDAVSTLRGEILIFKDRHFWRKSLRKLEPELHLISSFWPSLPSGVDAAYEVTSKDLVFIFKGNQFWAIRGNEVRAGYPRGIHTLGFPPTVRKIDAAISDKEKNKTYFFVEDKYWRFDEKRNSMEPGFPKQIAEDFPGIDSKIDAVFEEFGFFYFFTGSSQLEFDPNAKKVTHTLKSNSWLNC

Take `Cc1cc(COc2ccc(C[C@]3(C(N)=O)C[C@@H]3C(=O)NO)cc2)c2ccccc2n1`: the Ki is 2.4 mM in series [1]; more than 10 mM in series [2]; 0.058 mM on Stromelysin-1; 1 mM in series [3]; more than 10 mM at Interstitial collagenase; 0.11 mM at Matrilysin.
Turning to `NC(=O)[C@@]1(Cc2ccc(OCc3cc(-c4ccccc4)nc4ccccc34)c(F)c2)C[C@@H]1C(=O)NO`, the Papp A→B in series [4] came out at 0.3 ×10⁻⁶ cm/s.
On to `N#C[C@@]1(Cc2ccc(OCc3cc(-c4ccccc4)nc4ccccc34)cc2)C[C@@H]1C(=O)NO`, for which the AUC in series [5] was more than 2.5 µM·h.
As to `O=C(NO)[C@H]1C[C@]1(Cc1ccc(OCc2cc(-c3ccccc3)nc3ccccc23)cc1)C(=O)N1CCC[C@H]1CO`, the Ki (in series [1]; in series [2]; at Stromelysin-1; in series [3]; at Interstitial collagenase; on Matrilysin) was more than 10 mM each time.
